Laboratory results reported in US6506756B2, “Substituted imidazoles as dual histamine H1 and H3 agonists or antagonists” (Schering Corporation, priority 2000, dated 2003).
Where a name gives a salt, the structure may show the parent alone.

How the values were obtained:
[1] = target: T1, H3 receptors (Cavia porcellus, UniProt Q9JI35); assay: H3-receptor binding assay (guinea pig brain membranes, [3H]R-α-methyl histamine or [3H]Nα-methyl histamine); details: for Ki: HCl salt of the indicated compound, read-out: H3 Ave Ki; for inhibition at 2 µg/mL: final concentration 2 μg/ml, HCl salt
T1 construct: The source of the H3 receptors in this experiment was guinea pig brain; from tissue; host or cells: guinea pig brain membranes
Experimental: General Procedure for H3-Receptor Binding Assay
The source of the H3 receptors in this experiment was guinea pig brain. The animals weighed 400-600 g. The brain tissue was homogenized with a solution of 50 mM Tris, pH 7.5. The final concentration of tissue in the homogenization buffer was 10% w/v. The homogenates were centrifuged at 1,000×g for 10 min. in order to remove clumps of tissue and debris. The resulting supernatants were then centrifuged at 50,000×g for 20 min. in order to sediment the membranes, which were next washed three times in homogenization buffer (50,000×g for 20 min. each). The membranes were frozen and stored at −70° C. until needed.
All compounds to be tested were dissolved in DMSO and then diluted into the binding buffer (50 mM Tris, pH 7.5) such that the final concentration was 2 μg/ml with 0.1% DMSO. Membranes were then added (400 μg of protein) to the reaction tubes. The reaction was started by the addition of 3 nM [^3H]R-α-methyl histamine (8.8 Ci/mmol) or 3 nM [^3H]N^α-methyl histamine (80 Ci/mmol) and continued under incubation at 30° C. for 30 min. Bound ligand was separated from unbound ligand by filtration, and the amount of radioactive ligand bound to the membranes was quantitated by liquid scintillation spectrometry. All incubations were performed in duplicate and the standard error was always less than 10%. Compounds that inhibited more than 70% of the specific binding of radioactive ligand to the receptor were serially diluted to determine a Ki (nM). The results are given in the Table 1 for the HCl salt of the indicated compound.

[2] = target: T2, Histamine H1 receptor (Rattus norvegicus, UniProt P31390); assay: H1-receptor binding assay (rat brain membranes, [3H]pyrilamine); details: for Ki: Cheng-Prusoff from IC50, HCl salt, read-out: H1 Ave Ki; for inhibition at 1 µg/mL: concentration not given (top test concentration 1 μg/ml), HCl salt
T2 construct: The tissue source was male Sprague-Dawley rat brain; tissue Rockland Corporation, Gilbertsville, Pa; host or cells: male Sprague-Dawley rat brain membranes
From the text: General Procedure for H1-Receptor Binding Assay
The procedure used was based on that disclosed in V.T. Tran et al, “Histamine H1 receptors identified in mammalian brain membranes with [H-3]mepyramine”, Proc. Natl. Acad. Sci. U.S.A. 75 (1978) 6290-6294.
I. Tissue Preparation Protocol for Histamine H1 Receptor Binding Assay:
1. The tissue source was male Sprague-Dawley rat brain. These were purchased, stripped and frozen (available from Rockland Corporation, Gilbertsville, Pa.). The buffer used was ice-cold 50 mM Tris-HCl, pH 7.5. (The pH was determined at 25° C.)
2. The brains were spread out on plastic wrap on the benchtop and allowed to thaw for 10-15 min. After this, everything was kept ice-cold.
3. Two brains were put in each 50 ml round bottom centrifuge tube and 25 ml of buffer was added. Then they were broken up with a Polytron (from Brinkmann Instruments, Westbury, N.Y.) equipped with a PT-10 tip at setting 6 for 30 sec.
4. The volume in the tube was brought up to 45 ml and mixed and the particulate material was centrifuged at 1000×g (3000 rpm, SS-34 rotor) for 10 min to remove nuclei and unbroken cells.
5. Pellets were discarded and the supernatants were centrifuged 10 min at 50,000×g (20,000 rpm, SS-34 rotor).
6. The high-speed pellets were resuspended in a volume of Tris buffer equal to the original ([…]), the contents of all tubes were pooled, and a sample was taken for BCA protein assay. The material was aliquotted, 45 ml per round-bottom tube, and the resuspension was recentrifuged. The yield of protein was approximately 20 mg/brain, so there was about 40 mg of protein per tube.
7. Pellets were frozen at −80° C.
1. FDCL and comparative compounds for assay were independently solubilized at 1mg/ml DMSO by vortexing, or if necessary by sonication. The first dilution, 100-fold, was made in 50 mM Tris-HCl, pH 7.5, at room temperature. The three or four subsequent ten-fold serial dilutions were made in 1% DMSO/50 mM Tris-HCl, pH 7.5. Drug solutions and assay plates were kept at room temperature during the course of the assay set up.
2. Test compounds were assayed at four or five concentrations: 1, 0.1, 0.01, 0.001, and 0.0001 μg/ml. Twenty μl of drug solution was pipeted into each of three wells.
3. [^3H]Pyrilamine was diluted approximately 2000-fold with ice-cold […] Tris-HCl, pH 7.5 (to a working concentration of 20-25 nM), and put on ice.
4. A frozen tissue pellet was thawed in a 25° C. water bath, resuspended in 50 mM Tris-HCl, pH 7.5, at 1.7-2 mg/ml by brief break-up on the Polytron, and put on ice.
5. Twenty μl of diluted [^3H]pyrilamine was added to each well.
6. One hundred fifty μl of tissue suspension was added to each well.
7. The top of the plate was covered and it was placed in a 25° C. shaking water bath (about 60 oscillations/min) for 30 min.
8. Samples were filtered on a Tomtec Mach 2 harvester (available from Tomtec Corporation, Orange, Conn.) through a GF/B filter mat (from Wallac, Inc., Gaithersburg, Md.) presoaked in 0.3% polyethylenimine. Each sample was thrice washed with ice-cold 50 mM Tris-HCl, pH 7.5 dried 20 sec on the Tomtec, and dried 3-4 min in a microwave oven on a paper towel. The filter was impregnated with MELTILEX brand wax scintillant (from Wallac Corporation) and counted on a Betaplate scintillation counter (from Wallac Corporation).
9. Specific binding was determined as the difference between total and nonspecific binding. The percent inhibition in the presence of inhibitor or standard was determined using the formula: [1-(sample binding-nonspecific binding)/specific binding]×100 For compounds that inhibit more than 50% at 1 μg/ml, an IC50 value was interpolated from proximate concentrations. […]

T1 sequence (Q9JI35 whole entry): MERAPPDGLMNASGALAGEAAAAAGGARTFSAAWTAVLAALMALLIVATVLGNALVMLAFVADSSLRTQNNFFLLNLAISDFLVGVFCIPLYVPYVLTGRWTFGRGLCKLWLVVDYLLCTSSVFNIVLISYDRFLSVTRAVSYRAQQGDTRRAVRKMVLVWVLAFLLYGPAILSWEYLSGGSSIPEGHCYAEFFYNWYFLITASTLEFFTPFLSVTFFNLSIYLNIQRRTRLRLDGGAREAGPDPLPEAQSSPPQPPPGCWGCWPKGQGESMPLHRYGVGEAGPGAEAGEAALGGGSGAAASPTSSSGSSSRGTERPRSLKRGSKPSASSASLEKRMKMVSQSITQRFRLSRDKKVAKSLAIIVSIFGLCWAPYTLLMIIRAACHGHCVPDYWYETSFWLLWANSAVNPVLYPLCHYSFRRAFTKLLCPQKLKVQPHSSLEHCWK
T2 sequence (P31390 whole entry): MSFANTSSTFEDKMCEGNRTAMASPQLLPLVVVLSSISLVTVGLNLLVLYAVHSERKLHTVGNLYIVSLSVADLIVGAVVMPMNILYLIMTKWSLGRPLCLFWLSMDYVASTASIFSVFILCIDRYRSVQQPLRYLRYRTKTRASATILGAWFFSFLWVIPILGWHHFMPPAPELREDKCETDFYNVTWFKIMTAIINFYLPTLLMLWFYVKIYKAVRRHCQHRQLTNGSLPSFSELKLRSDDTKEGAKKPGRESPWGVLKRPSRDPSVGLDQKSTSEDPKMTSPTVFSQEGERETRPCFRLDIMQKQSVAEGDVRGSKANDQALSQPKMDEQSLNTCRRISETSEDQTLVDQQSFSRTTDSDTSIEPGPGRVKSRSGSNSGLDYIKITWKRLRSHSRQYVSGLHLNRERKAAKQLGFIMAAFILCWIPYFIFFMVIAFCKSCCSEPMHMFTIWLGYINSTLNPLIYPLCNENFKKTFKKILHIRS

Row | Ki [1] [nM] | Ki [2] [nM] | inhibition at 2 µg/mL [1] [%] | inhibition at 1 µg/mL [2] [%] | melting point | SMILES
1 |  |  | 47 |  |  | O=C(CCc1c[nH]cn1)N1CCC(=C2c3ccc(Cl)cc3CCc3cccnc32)CC1
2 | 260 | 4.1 |  |  |  | Clc1ccc2c(c1)CCc1cccnc1C2=C1CCN(CCCc2c[nH]cn2)CC1
3 |  | 24 | 5 | 84 |  | Cn1cnc(CN2CCN(C3c4ccc(Cl)cc4CCc4cccnc43)CC2)c1 (centres unmarked)
4 |  | 300 | 18 | 42 |  | O=C(c1c[nH]cn1)N1CCN(C2c3ccc(Cl)cc3CCc3cccnc32)CC1 (centres unmarked)
5 | 68.5 | 31.5 |  |  |  | Clc1ccc2c(c1)CCc1cccnc1C2N1CCN(CCCCc2c[nH]cn2)CC1 (centres unmarked)
6 | 32 | 12.5 |  |  |  | Clc1ccc2c(c1)CCc1cccnc1C2N1CCN(CCCCCc2c[nH]cn2)CC1 (centres unmarked)
7 | 22.5 | 7 |  |  |  | Clc1ccc2c(c1)CCc1cccnc1C2C1CCN(CCCCCc2c[nH]cn2)CC1 (centres unmarked)
8 | 41 | 8 |  |  |  | Clc1ccc2c(c1)CCc1cccnc1C2N1CCN(CCCCCCc2c[nH]cn2)CC1 (centres unmarked)
9 | 148 |  |  | 36 |  | O=C(OCCCCc1c[nH]cn1)N1CCN(C2c3ccc(Cl)cc3CCc3cccnc32)CC1 (centres unmarked)
10 |  |  |  |  | 165 to 170 °C (dec.) | Clc1ccc2c(c1)CCc1cccnc1C2N1CCN(CCCCc2c[nH]cn2)CC1 (centres unmarked) (as salt: HCl) [Example 12, 8-Chloro-6,11-dihydro-11-[4-[4-(1H-imidazol4-yl)butyl]-1-piperazinyl]-5H-benzo[5,6]cyclohepta[1,2-b]pyridine]
11 |  |  |  |  | 190.5 to 192 °C (dec.) | Clc1ccc2c(c1)CCc1cccnc1C2N1CCN(Cc2c[nH]cn2)CC1 (racemic) (as salt: HCl) (hydrate or solvate) [1-(8-Chloro-6,11-dihydro-5H-benzo[5,6]cyclohepta[1,2-b]pyridin-11-yl)-4-[(1H-imidazol-4-yl)-methyl]-piperazine]
12 | 150 | 36.8 |  |  |  | Clc1ccc2c(c1)CCc1cccnc1C2N1CCN(Cc2c[nH]cn2)CC1 (racemic) [1-(8-Chloro-6,11-dihydro-5H-benzo[5,6]cyclohepta[1,2-b]pyridin-11-yl)-4-[(1H-imidazol-4-yl)-methyl]-piperazine]
13 | 91 | 182 |  |  |  | Clc1ccc2c(c1)CCc1cccnc1C2C1CCN(Cc2c[nH]cn2)CC1 (single isomer, unassigned) [drawing 61]
14 | 133 | 15.4 |  |  |  | Clc1ccc2c(c1)CCc1cccnc1C2N1CCN(Cc2c[nH]cn2)CC1 (single isomer, unassigned; (-)) [(−)-(8-Chloro-6,11-dihydro-5H-benzo[5,6]cyclohepta[1,2-b]pyridin-11-yl)-4-[(1H-imidazol-4-yl)methyl]-piperazine]

The remaining lines, values behind:

Row | SMILES | Ki [1] [nM] | Ki [2] [nM] | inhibition at 2 µg/mL [1] [%] | inhibition at 1 µg/mL [2] [%] | melting point
15 | Clc1ccc2c(c1)CCc1cccnc1C2=C1CCN(Cc2c[nH]cn2)CC1 | 660 | 16 |  |  | 
16 | Clc1ccc2c(c1)CCc1cccnc1C2N1CCN(CCc2c[nH]cn2)CC1 (centres unmarked) |  | 5.6 | 53 |  | 
17 | Clc1ccc2c(c1)CCc1cccnc1C2=C1CCN(CCCCc2c[nH]cn2)CC1 | 25.2 | 10.5 |  |  | 
18 | O=C(CCc1c[nH]cn1)N1CCN(C2c3ccc(Cl)cc3CCc3cccnc32)CC1 (centres unmarked) |  | 200 | 44 |  | 
19 | Clc1ccc2c(c1)CCc1cccnc1C2N1CCN(CCCc2c[nH]cn2)CC1 (centres unmarked) | 173 | 7.5 |  |  | 
20 | Clc1ccc2c(c1)CCc1cccnc1C2C1CCN(CCCCc2c[nH]cn2)CC1 (centres unmarked) | 42 | 14.3 |  |  | 
21 | Clc1ccc2c(c1)CCc1cccnc1C2=C1CCN(CCCCCc2c[nH]cn2)CC1 | 26.5 | 2.5 |  |  | 
22 | Clc1ccc2c(c1)CCc1cccnc1C2C1CCN(CCCCCCc2c[nH]cn2)CC1 (centres unmarked) | 27.5 | 5.5 |  |  | 
23 | Clc1ccc2c(c1)CCc1cccnc1C2=C1CCN(CCCCCCc2c[nH]cn2)CC1 | 33.5 | 12 |  |  | 
24 | O=C(NCCCCc1c[nH]cn1)N1CCN(C2c3ccc(Cl)cc3CCc3cccnc32)CC1 (centres unmarked) | 47 | 250 |  |  | 
25 | Clc1ccc2c(c1)CCc1cccnc1C2=C1CCN(CCCCCCc2c[nH]cn2)CC1 (as salt: hydrochloride) (hydrate or solvate) [Example 14, 8-Chloro-6,11-dihydro-11-[1-[6-(1H-imidazol-4-yl)hexyl]-4-piperidinylidene]-5H-benzo[5,6]cyclohepta[1,2-b]pyridine] |  |  |  |  | 162 to 165 °C (dec.)
26 | Clc1ccc2c(c1)CCc1cccnc1C2C1CCN(CCCCCc2c[nH]cn2)CC1 (centres unmarked) (as salt: hydrochloride) [Example 13, 8-chloro-6,11-dihydro-11-[1-[5-(1H-imidazol-4-yl)pentyl]-4-piperidinyl]-5H-benzo[5,6]cyclohepta[1,2-b]pyridine] |  |  |  |  | 164 to 170 °C (dec.)
27 | Clc1ccc2c(c1)CCc1cccnc1C2C1CCN(Cc2c[nH]cn2)CC1 (single isomer, unassigned) [drawing 60] |  | 1.2 | 15 |  | 
28 | Clc1ccc2c(c1)CCc1cccnc1C2N1CCN(Cc2c[nH]cn2)CC1 (single isomer, unassigned; (+)) [(+)-(8-Chloro-6,11-dihydro-5H-benzo[5,6]cyclohepta[1,2-b]pyridin-11-yl)-4-[(1H-imidazol-4-yl)methyl]-piperazine] | 121 | 4.6 |  |  | 
